Results published in patent US8653304B2, “2,3-dihydro-1H-indene-2-yl urea derivative and pharmaceutical application of same” (Toray Industries, Inc., priority 2009, dated 2014).
Where a name gives a salt, the structure may show the parent alone.

Legend:
U937 cells = test: Ability to induce drug-induced phospholipidosis (U937, Nile red, flow cytometer); type: cell-based, human; details: 48 hours, 20 μM, fluorescence intensity compared to valproic acid 300 μM
Experimental: The evaluation of Comparative Compound 4c, which was a comparative control compound, was carried out by a method partially modified from the method described in Cell Biology and Toxicology (2003, Vol. 19, pp. 161-176).
Each test compound was mixed with U937 cells, which are a cell line derived from human monocytes, and the cells were cultured in the presence of 5% CO2 at 37° C. for 48 hours. The cell suspension after the culturing was replaced with a PBS solution containing Nile red (Invitrogen) which is a phospholipid staining solution, and the resulting mixture was allowed to react in the dark at room temperature for 10 minutes. After centrifugal washing with PBS solution, the fluorescence intensity was measured with a flow cytometer (Becton Dickinson) (Excitation Wavelength: 488 nm, Detection Region: 515-545 nm). As a negative control substance, valproic acid (300 μM) was used. […] Each test compound was dissolved in DMSO before use, and the resulting solution was added to the cells such that the final concentration of DMSO was 1%.

[1] = system: Human CYP (Cytochrome P450); test: Metabolic stability in human CYP (human liver microsomes); type: in vitro ADME; details: human liver microsomes 0.5 mg/mL, NADPH, 37° C., comparative control compounds 5 μM
Experimental: Each test compound was mixed at a concentration of 2 μM with a phosphate buffer solution containing Human liver microsomes (Xenotech) in an amount of 0.5 mg/mL. Thereafter, NADPH was added thereto, and the obtained mixture was allowed to react at 37° C. for up to 30 minutes. The reaction was terminated by adding acetonitrile, and then the resultant was centrifuged for 10 minutes at 4° C. to collect a supernatant. The supernatant was pretreated by methanol extraction method, and the concentration of the compound was analyzed by LC/MS/MS (ESI positive mode). The compound remaining rate was calculated from the obtained concentration of the compound.

Cc1ccc(-n2nc(C(C)(C)C)cc2NC(=O)Nc2ccc(OCCN3CCOCC3)c3ccccc23)cc1 [Comparative Compound 4c, 1-(3-tert-butyl-1-p-tolyl-1H-pyrazol-5-yl)-3-(4-(2-morpholinoethoxy)naphthalen-1-yl)urea.hydrochloride]
phospholipidosis judgement (U937 cells): positive | microsomal CLint at 5 μM [1]: 321 µL/min/mg
